Legend:
HBV = test: qPCR test in the HBV in vitro test (HBV DNA in HepG2.2.15 cells); type: cell-based; settings: Hepatitis B virus, 192 h, HBV DNA in HepG2.2.15 culture medium, day 8, read-out: Half maximal inhibitory concentration (EC50) of HBV
Protocol: To evaluate the inhibitory effect of the compound on HBV by detecting content of HBV DNA in HepG2.2.15 cells in a real-time qPCR test, with EC50 of the compound as an indicator.
3.1. HepG2.2.15 cells (4×10^4 cells/well) were inoculated into a 96-well plate and cultured at 37° C. in 5% CO2 overnight. 3.2. On day 2, the compound was 3-fold diluted in gradient for a total of 8 dilution gradients. The compound at different concentrations was added into the culture wells in duplicate. The final concentration of DMSO in the culture medium was 1%. 1 μM GLS4 was used as a 100% inhibition control (the structure of GLS4 disclosed in WO2008154817A1 is as follows:
1% DMSO was used as a 0% inhibition control. 3.3. On day 5, the culture medium was replaced with a fresh culture medium containing the compound. 3.4. On day 8, the culture medium in the culture wells was collected, and the high-throughput DNA purification kit (Qiagen-51162) was used to extract DNA. For specific steps, refer to the product manual.
3.6. Each well of the 96-well PCR plate was added with 15 μL of the reaction mixture, and then with 10 μL of sample DNA or HBV DNA standard. 3.7. The reaction conditions for PCR: heating at 95° C. for 10 min, degeneration at 95° C. for 15 s, and extension at 60° C. for 1 min, with a total of 40 cycles.
3.8.1. Calculation of the inhibition percentage: % Inh.=[1−(DNA copy number in the sample−DNA copy number in 1 μM GLS4)/(DNA copy number in the DMSO control−DNA copy number in 1 μM GLS4)]×100. 3.8.2. Calculation of EC50: half maximal inhibitory concentration (EC50) of the compound for HBV was calculated using GraphPad Prism software. 3.8.3.

CYP2C19 = target: T1, CYP2C19 (Homo sapiens, UniProt P33261); test: Inhibition of human liver microsomal cytochrome P450 isoenzymes; type: in vitro ADME; settings: human liver microsomes
T1 construct: from tissue; host or cells: human liver microsomes
Protocol: (§1) Experimental objective: to determine the inhibitory effect of the test compound on the activity of human liver microsomal cytochrome P450 isoenzymes (CYP1A2, CYP2C9, CYP2C19, CYP2D6 and CYP3A4). Experimental procedures: first, the test compound (10 mM) was diluted in gradient to prepare working solutions (100× final concentration) at concentrations of: 5, 1.5, 0.5, 0.15, 0.05, 0.015, and 0.005 mM, and working solutions of positive inhibitors for P450 isoenzymes (CYP1A2, CYP2C9, CYP2C19, CYP2D6, and CYP3A4) and the specific substrate mixtures thereof (5 in 1) were prepared simultaneously; human liver microsomes frozen in a−80° C. refrigerator were thawed on ice, and after all thawed, the human liver microsomes were diluted with PB to prepare a working solution at a specific concentration (0.253 mg/mL); 20 μL of the substrate mixture (20 μL of PB was added into the blank well) and 158 μL of the working solution of human liver microsomes were added into the reaction plate which was then placed on ice for use; then 2 μL of the test compound at each concentration (N=1) and a specific inhibitor (N=2) were added into the corresponding well, and the group without the inhibitor (test compound or the positive inhibitor) was added with a corresponding organic solvent as a control sample (the test compound control sample was 1:1 DMSO:MeOH; the positive control sample was 1:9 DMSO:MeOH); after pre-incubation under a 37° C. water bath for 10 min, 20 μL of a coenzyme factor (NADPH) solution was added into the reaction plate and incubated under a 37° C. water bath for 10 min, 400 μL of a cold acetonitrile solution (the internal standard was 200 ng/mL Tolbutamide and Labetalol) was added to terminate the reaction, and the reaction plate was placed on a shaker and shaken for 10 min; after centrifugation at 4,000 rpm for 20 min, 200 μL of the supernatant was collected and added to 100 μL of water to dilute the sample, and, finally, the plate was sealed, oscillated shaken evenly, and subjected to LC/MS/MS detection.

CYP3A4 = target: T2, CYP3A4 (Homo sapiens, UniProt P08684); test: as above; type: in vitro ADME; settings: human liver microsomes
T2 construct: from tissue; host or cells: human liver microsomes
Protocol: as §1

CYP2D6 = target: T3, CYP2D6 (Homo sapiens, UniProt P10635); test: as above; type: in vitro ADME; settings: human liver microsomes
T3 construct: from tissue; host or cells: human liver microsomes
Protocol: as §1

CYP2C9 = target: T4, CYP2C9 (Homo sapiens, UniProt P11712); test: as above; type: in vitro ADME; settings: human liver microsomes
T4 construct: from tissue; host or cells: human liver microsomes
Protocol: as §1

CYP1A2 = target: T5, CYP1A2 (Homo sapiens, UniProt P05177); test: as above; type: in vitro ADME; settings: human liver microsomes
T5 construct: from tissue; host or cells: human liver microsomes
T5 sequence (P05177 1-516): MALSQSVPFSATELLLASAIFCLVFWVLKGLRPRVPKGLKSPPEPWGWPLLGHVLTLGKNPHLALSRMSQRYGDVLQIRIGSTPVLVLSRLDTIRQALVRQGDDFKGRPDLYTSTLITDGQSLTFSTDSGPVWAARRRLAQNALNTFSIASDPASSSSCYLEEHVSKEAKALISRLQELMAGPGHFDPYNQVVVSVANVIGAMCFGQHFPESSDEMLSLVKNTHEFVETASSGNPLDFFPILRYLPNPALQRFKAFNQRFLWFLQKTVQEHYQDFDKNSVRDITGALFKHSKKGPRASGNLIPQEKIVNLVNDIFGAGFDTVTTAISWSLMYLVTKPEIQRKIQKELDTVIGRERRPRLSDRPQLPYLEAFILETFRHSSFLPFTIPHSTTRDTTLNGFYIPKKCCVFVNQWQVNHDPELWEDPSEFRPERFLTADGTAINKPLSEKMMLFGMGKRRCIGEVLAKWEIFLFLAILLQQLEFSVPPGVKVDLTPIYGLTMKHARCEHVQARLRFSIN
Protocol: as §1

T4 sequence (P11712 whole entry): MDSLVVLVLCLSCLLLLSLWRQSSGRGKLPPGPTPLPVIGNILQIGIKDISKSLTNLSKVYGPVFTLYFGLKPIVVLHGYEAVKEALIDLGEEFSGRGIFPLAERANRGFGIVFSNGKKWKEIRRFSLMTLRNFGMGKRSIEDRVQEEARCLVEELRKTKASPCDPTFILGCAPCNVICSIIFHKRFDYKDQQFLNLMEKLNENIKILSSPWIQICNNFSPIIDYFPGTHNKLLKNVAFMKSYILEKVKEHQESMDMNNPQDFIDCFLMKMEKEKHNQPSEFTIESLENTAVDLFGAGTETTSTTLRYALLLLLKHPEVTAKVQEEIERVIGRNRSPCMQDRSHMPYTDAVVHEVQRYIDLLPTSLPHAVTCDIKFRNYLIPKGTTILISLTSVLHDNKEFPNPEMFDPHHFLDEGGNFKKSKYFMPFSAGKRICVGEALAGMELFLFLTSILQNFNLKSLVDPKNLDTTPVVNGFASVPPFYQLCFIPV
T2 sequence (P08684 whole entry): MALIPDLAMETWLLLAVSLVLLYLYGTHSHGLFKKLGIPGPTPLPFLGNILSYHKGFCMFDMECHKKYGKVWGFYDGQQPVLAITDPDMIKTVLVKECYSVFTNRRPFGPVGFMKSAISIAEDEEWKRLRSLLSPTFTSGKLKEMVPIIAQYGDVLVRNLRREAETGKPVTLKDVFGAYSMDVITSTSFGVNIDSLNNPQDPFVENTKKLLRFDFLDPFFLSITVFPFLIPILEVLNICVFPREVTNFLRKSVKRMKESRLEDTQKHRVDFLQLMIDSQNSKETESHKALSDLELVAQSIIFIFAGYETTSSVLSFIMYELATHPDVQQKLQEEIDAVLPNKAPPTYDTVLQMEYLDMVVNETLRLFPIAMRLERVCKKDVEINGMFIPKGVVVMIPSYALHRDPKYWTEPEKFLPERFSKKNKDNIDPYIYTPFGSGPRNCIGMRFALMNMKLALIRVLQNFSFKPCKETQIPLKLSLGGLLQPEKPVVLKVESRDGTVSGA
T1 sequence (P33261 whole entry): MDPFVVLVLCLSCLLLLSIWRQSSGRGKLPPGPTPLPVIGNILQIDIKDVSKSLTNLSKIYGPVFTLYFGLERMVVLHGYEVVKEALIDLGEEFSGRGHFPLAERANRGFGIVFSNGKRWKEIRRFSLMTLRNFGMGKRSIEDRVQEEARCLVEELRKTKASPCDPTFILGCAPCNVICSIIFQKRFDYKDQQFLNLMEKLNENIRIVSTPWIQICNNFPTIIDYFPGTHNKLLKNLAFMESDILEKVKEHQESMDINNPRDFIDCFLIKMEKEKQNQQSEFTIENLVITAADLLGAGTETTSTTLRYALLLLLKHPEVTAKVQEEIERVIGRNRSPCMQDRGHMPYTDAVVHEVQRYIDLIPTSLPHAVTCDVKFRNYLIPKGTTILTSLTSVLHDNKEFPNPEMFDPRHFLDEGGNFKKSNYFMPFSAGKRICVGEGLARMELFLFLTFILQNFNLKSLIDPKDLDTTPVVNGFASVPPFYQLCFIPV
T3 sequence (P10635 whole entry): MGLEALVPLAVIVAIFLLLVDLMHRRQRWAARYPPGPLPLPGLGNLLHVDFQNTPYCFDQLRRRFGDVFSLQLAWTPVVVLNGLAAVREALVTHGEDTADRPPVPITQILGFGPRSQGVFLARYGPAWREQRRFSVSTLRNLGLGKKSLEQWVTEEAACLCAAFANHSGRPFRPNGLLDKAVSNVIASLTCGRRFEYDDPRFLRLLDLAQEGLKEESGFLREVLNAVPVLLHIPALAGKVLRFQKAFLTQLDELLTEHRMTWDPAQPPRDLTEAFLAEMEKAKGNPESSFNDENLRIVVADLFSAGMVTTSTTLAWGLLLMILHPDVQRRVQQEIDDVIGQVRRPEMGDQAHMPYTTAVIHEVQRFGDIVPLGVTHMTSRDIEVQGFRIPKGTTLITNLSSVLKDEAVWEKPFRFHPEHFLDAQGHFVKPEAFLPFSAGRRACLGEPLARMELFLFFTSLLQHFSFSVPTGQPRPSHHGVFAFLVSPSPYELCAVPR

Row | Compound | EC50 (HBV) | also measured
1 | N#CC1(NC(=O)C(=O)c2c(Cl)c(C(=O)Nc3ccc(F)c(F)c3)c3n2CCC3)CCOCC1 [Compound 12] | 0.005 µM | –
2 | C[C@]1(NC(=O)C(=O)c2c(Cl)c(C(=O)Nc3ccc(F)c(F)c3)c3n2CCC3)CC[C@@H](C(=O)O)CC1 [Compound 20] | 0.011 µM | –
3 | CC1(NC(=O)C(=O)c2c(Cl)c(C(=O)Nc3ccc(F)c(F)c3)c3n2CCC3)CCC(CC(=O)O)CC1 (stereo not shown) [Compound 13] | 0.019 µM | –
4 | C[C@]1(NC(=O)C(=O)c2c(Cl)c(C(=O)Nc3ccc(F)c(F)c3)c3n2CCC3)CC[C@H](CCC(=O)O)CC1 [Compound 22] | 0.014 µM | –
5 | O=C(NC12CCC(C(=O)O)(CC1)CC2)C(=O)c1c(Cl)c(C(=O)Nc2ccc(F)c(F)c2)c2n1CCC2 [Compound 15] | 0.037 µM | –
6 | O=C(O)C[C@H]1CC[C@](NC(=O)C(=O)c2c(Cl)c(C(=O)Nc3cc(F)c(F)c(F)c3)c3n2CCC3)(C(F)(F)F)CC1 [Compound 29] | 0.003 µM | –
7 | CC1(NC(=O)C(=O)c2c(Cl)c(C(=O)Nc3ccc(F)c(C#N)c3)c3n2CCC3)CCOCC1 [Compound 5] | 0.007 µM | –
8 | CC(C)(CCC(=O)O)NC(=O)C(=O)c1c(Cl)c(C(=O)Nc2ccc(F)c(F)c2)c2n1CCC2 [Compound 16] | 0.041 µM | –
9 | O=C(O)CC1CCC(NC(=O)C(=O)c2c(Cl)c(C(=O)Nc3cc(F)c(F)c(F)c3)c3n2CCC3)(C(F)(F)F)CC1 (stereo not shown) [Compound 28] | 0.002 µM | –
10 | CC(C)(C)OC(=O)C[C@H]1CC[C@](C)(NC(=O)C(=O)c2c(Cl)c(C(=O)Nc3cc(F)c(F)c(F)c3)c3n2CCC3)CC1 [Compound 25-3] | 0.004 µM | –
11 | CC1(NC(=O)C(=O)c2cc(C(=O)Nc3ccc(F)c(F)c3)c3n2CCC3)CCOCC1 [Compound 1] | 0.035 µM | –
12 | CC1(NC(=O)C(=O)c2c(C(F)(F)F)c(C(=O)Nc3ccc(F)c(F)c3)c3n2CCC3)CCOCC1 [Compound 9] | 0.041 µM | –
13 | C[C@@H](NC(=O)C(=O)c1c(Cl)c(C(=O)Nc2ccnc(Cl)c2)c2n1CCC2)C(F)(F)F [Compound 14] | 0.07 µM | –
14 | COCC1(NC(=O)C(=O)c2c(Cl)c(C(=O)Nc3ccc(F)c(F)c3)c3n2CCC3)CCOCC1 [Compound 11] | 0.004 µM | –
15 | O=C(O)C[C@H]1CC[C@@](NC(=O)C(=O)c2c(Cl)c(C(=O)Nc3cc(F)c(F)c(F)c3)c3n2CCC3)(C(F)(F)F)CC1 [Compound 30] | 0.001 µM | –
16 | C[C@]1(NC(=O)C(=O)c2c(Cl)c(C(=O)Nc3ccc(F)c(F)c3)c3n2CCC3)CC[C@H](C(=O)O)CC1 [Compound 19] | 0.02 µM | –
17 | Cc1c(C(=O)Nc2ccc(F)c(F)c2)c2n(c1C(=O)C(=O)NC1(C)CCOCC1)CCC2 [Compound 3] | 0.005 µM | –
18 | CC(C)(CCCCC(=O)O)NC(=O)C(=O)c1c(Cl)c(C(=O)Nc2cc(F)c(F)c(F)c2)c2n1CCC2 [Compound 27] | 0.012 µM | –
19 | N#CC1(NC(=O)C(=O)c2c(Cl)c(C(=O)Nc3ccc(F)c(F)c3)c3n2CCC3)CCC(CC(=O)O)CC1 (stereo not shown) [Compound 24] | 0.299 µM | –
20 | CC1(NC(=O)C(=O)c2c(Cl)c(C(=O)Nc3cc(F)c(F)c(F)c3)c3n2CCC3)CCOCC1 [Compound 10] | 0.002 µM | –
21 | CC1(NC(=O)C(=O)c2c(Cl)c(C(=O)Nc3ccc(F)c(F)c3)c3n2CCC3)CCN(CC(=O)O)CC1 [Compound 4] | 0.58 µM | –
22 | CC1(NC(=O)C(=O)c2cc(C(=O)Nc3ccc(F)c(F)c3)c3n2CCCC3)CCOCC1 [Compound 6] | 0.11 µM | –
23 | N#CC1(NC(=O)C(=O)c2c(Cl)c(C(=O)Nc3cc(F)c(F)c(F)c3)c3n2CCC3)CCC(CC(=O)O)CC1 (stereo not shown) [Compound 26] | 0.174 µM | –
24 | CC(C)(CCCC(=O)O)NC(=O)C(=O)c1c(Cl)c(C(=O)Nc2ccc(F)c(F)c2)c2n1CCC2 [Compound 23] | 0.027 µM | –
25 | CC1(NC(=O)C(=O)c2c(Br)c(C(=O)Nc3ccc(F)c(F)c3)c3n2CCC3)CCOCC1 [Compound 8] | 0.009 µM | –
26 | C[C@]1(NC(=O)C(=O)c2c(Cl)c(C(=O)Nc3ccc(F)c(F)c3)c3n2CCC3)CC[C@@H](CCC(=O)O)CC1 [Compound 21] | 0.003 µM | –
27 | COC(=O)C[C@H]1CC[C@](C)(NC(=O)C(=O)c2c(Cl)c(C(=O)Nc3cc(F)c(F)c(F)c3)c3n2CCC3)CC1 [Compound 31] | 0.005 µM | –
28 | CC1(NC(=O)C(=O)c2c(Cl)c(C(=O)Nc3ccnc(Cl)c3)c3n2CCC3)CCOCC1 [Compound 7] | 0.03 µM | –
29 | CC1(NC(=O)C(=O)c2c(Cl)c(C(=O)Nc3ccc(F)c(F)c3)c3n2CCC3)CCOCC1 [Compound 2] | 0.003 µM | IC50 (CYP2C19): > 50 µM; IC50 (CYP3A4): > 50 µM; IC50 (CYP2D6): > 50 µM; IC50 (CYP2C9): > 50 µM; IC50 (CYP1A2): > 50 µM
